Where a name gives a salt, the structure may show the parent alone. Read-outs that look alike come from different tables or passages of the source.
Experiments:
[1] = molecular target: T1, AOC2 (Homo sapiens, UniProt O75106); assay: AOC2 biochemical assay (Amplex Red)
T1 construct: host or cells: HEK293 cells (transient transfection), cell homogenate
T1 sequence (O75106 1-756): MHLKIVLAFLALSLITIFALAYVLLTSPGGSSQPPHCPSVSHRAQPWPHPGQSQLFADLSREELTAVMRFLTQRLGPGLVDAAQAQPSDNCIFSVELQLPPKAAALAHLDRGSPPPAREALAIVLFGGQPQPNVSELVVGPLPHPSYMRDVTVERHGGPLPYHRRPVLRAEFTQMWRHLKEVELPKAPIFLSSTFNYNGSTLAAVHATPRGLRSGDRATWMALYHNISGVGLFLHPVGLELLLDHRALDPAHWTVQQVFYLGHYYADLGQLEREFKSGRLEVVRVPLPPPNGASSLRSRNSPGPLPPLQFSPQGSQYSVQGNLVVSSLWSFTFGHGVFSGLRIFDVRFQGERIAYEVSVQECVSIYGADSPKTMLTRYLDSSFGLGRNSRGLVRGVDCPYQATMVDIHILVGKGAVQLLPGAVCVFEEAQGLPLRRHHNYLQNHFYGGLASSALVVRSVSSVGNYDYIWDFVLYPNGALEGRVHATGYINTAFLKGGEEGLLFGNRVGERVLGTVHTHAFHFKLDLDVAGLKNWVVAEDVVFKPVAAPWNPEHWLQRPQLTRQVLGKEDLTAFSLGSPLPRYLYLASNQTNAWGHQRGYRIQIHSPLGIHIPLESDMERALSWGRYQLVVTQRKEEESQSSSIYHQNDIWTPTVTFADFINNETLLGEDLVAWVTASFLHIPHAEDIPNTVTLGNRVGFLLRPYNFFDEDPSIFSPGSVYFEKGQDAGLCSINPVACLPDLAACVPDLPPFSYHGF
Procedure: The Amplex® Red Assay (commercially available from Thermo Fisher Scientific) provides a sensitive method for the detection of H2O2 generated during enzymatic reactions like the amine oxidation catalyzed by AOC2. […] An aliquot of 5 μL of the compound dilution is added to a 96 well plate (flat bottom F, black, GREINER bio-one, #655900) in a DMSO concentration of 2%. […] Cells are cultured for 3 days in EMEM culture medium containing 10% FCS (#04-00-1A, Biological Industries). After washing twice with ice cold PBS, cells are lysed by mechanic homogenation and cleared supernatants are shock frozen in liquid nitrogen and stored at -80° C. For the determination of AOC2 enzymatic activity cell lysates are thawed on ice and 1:1 diluted with reaction buffer. An Aliquot of 45 μL is added to the compound dilution and incubated for 30 min at 37° C. The enzymatic reaction is started with the addition of 50 μL of Amplex® Red reaction mix (final assay concentration: 100 mM sodiumphosphate, 120 μM Amplex® Red reagent (#A22177 Molecular Probes), 1.5 U/mL Horseradish Peroxidase (#P8375 Sigma-Aldrich), 2 mM phenylethylamine (#[…] Sigma-Aldrich), 0.05% Pluronic F-127 (#P3000MP Sigma-Aldrich), pH 7.4, 37° C.). The turnover per time of the substrate is determined directly with a fluorescence reader (Ex 540 nm/Em 590 nm) like Envision 2104 Multilabel Reader (PERKIN ELMER) for 60 min. (cf. Anal Biochem (1997) 253:169-174; Anal Biochem (1997) 253:162-168)

[2] = molecular target: T2, AOC1 (Homo sapiens, UniProt P19801); assay: AOC1 biochemical assay (Amplex Red)
T2 construct: purchased R&D Systems 8297-AO-010
T2 sequence (P19801 20-751): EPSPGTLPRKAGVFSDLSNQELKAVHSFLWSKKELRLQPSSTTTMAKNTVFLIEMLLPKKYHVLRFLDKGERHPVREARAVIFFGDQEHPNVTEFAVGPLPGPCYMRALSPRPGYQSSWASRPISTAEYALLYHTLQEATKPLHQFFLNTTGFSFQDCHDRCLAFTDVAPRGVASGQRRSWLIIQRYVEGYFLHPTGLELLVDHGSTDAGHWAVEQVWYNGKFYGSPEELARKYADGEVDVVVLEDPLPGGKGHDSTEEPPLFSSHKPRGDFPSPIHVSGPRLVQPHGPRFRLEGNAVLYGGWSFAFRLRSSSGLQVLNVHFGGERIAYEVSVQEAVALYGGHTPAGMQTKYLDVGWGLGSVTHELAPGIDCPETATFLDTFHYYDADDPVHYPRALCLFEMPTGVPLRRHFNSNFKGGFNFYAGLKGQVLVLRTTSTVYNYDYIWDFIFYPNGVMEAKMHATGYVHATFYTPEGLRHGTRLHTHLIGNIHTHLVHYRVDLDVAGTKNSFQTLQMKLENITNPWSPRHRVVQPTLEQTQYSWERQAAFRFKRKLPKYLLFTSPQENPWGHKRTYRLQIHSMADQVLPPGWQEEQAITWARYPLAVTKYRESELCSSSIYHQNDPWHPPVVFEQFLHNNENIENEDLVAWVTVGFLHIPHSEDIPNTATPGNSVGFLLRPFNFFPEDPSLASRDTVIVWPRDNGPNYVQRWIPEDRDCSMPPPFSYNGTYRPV
Procedure: The Amplex® Red Assay (available from Thermo Fisher Scientific) provides a sensitive method for the detection of H2O2 generated during enzymatic reactions like the amine oxidation catalyzed by AOC1. The assay reagent is a colorless substrate (N-acetyl-3,7-dihydroxyphenoxazine) that reacts in a 1:1 stoichiometry with hydrogen peroxide (H2O2) to produce the fluorescent dye resorufin (7-hydroxyphenoxazin-3-one, excitation/emission maxima=570/585 nm).
An aliquot of 3 μL of the compound dilution is added to a 384 well plate (Optiplate, PS, flat bottom F, black, PERKIN ELMER, #6007270) in a DMSO concentration of 6.6%.
An AOC1 enzyme aliquot (#8297-AO-010, R&D Systems) is thawed on ice, diluted in reaction buffer and added in a volume of 7 μL to the wells to give a final assay concentration of 1 ng/well. After incubation of inhibitor and enzyme for 30 minutes at 37° C., the enzymatic reaction is started with the addition of 10 μL of Amplex® Red reaction mix (final assay concentration: 100 mM sodiumphosphate, 120 μM Amplex® Red reagent (#A22177 Molecular Probes), 1.5 U/mL Horseradish Peroxidase (#P8375 Sigma-Aldrich), 200 μM putrescine (#P7505 Sigma-Alrdich), 0.05% Pluronic F-127 (#P3000MP Sigma-Aldrich), pH 7.4, 37° C.).
After an incubation for 30 minutes at 37° C. the turnover of the substrate is determined directly (or after the addition of an excess of an amine-oxidase inhibitor) with a fluorescence reader (Ex 540 nm/Em 590 nm) like Envision 2104 Multilabel Reader (PERKIN ELMER).

| IC50 ([1]; read-out: AOC2 IC50) [nM] | IC50 ([2]; read-out: AOC1 IC50) [nM] | IC50 ([1]; read-out: IC50 AOC2) [nM] | IC50 ([2]; read-out: IC50 AOC1) [nM] | SMILES |
| --- | --- | --- | --- | --- |
| 130 | 12500 | – | – | CN(C)C(=O)CC1CCN(S(=O)(=O)c2ccc(OC/C(=C\F)CN)nc2)CC1 [Example 19] |
| 93 | 13700 | – | – | NC/C(=C/F)COc1ccc(S(=O)(=O)N2C[C@H]3C[C@@]3(C(=O)N3CCOCC3)C2)cn1 [Example 22] |
| 9 | 2360 | – | – | NC/C(=C/F)COc1ccc(S(=O)(=O)N2CCC(O)(C(F)(F)F)CC2)cn1 [Example 42] |
| 272 | 1560 | – | – | NC/C(=C/F)COc1ccc(S(=O)(=O)N2CCC(C(N)=O)CC2)cn1 [Example 7] |
| 210 | 2550 | – | – | CNC(=O)[C@H]1CCN(S(=O)(=O)c2ccc(OC/C(=C\F)CN)nc2)C1 [Example 11] |
| 70 | 37600 | – | – | NC/C(=C/F)COc1ccc(S(=O)(=O)N2C[C@@H]3[C@H](C2)[C@H]3C(=O)O)cn1 [Example 45, trans-3-[6-((Z)-2-Aminomethyl-3-fluoro-allyloxy)-pyridine-3-sulfonyl]-3-aza-bicyclo[3.1.0]hexane-6-carboxylic acid trifluoroacetate] |
| 214 | 3180 | – | – | NC/C(=C/F)COc1ccc(S(=O)(=O)N2CCC(C(=O)N3CCC3)CC2)cn1 [Example 10] |
| – | – | 2730 | 70 | NC/C(=C/F)COc1cnc(N2CC[C@H](O)C2)nc1 [Z isomer of example 6 of WO 2018/027892, reference compound] |
| 59 | 3740 | – | – | CC(=O)NCC1CCN(S(=O)(=O)c2ccc(OC/C(=C\F)CN)nc2)CC1 [Example 28] |
| 189 | 6250 | – | – | CN(C)C(=O)C1CCN(S(=O)(=O)c2ccc(OC/C(=C\F)CN)nc2)CC1 [Example 17] |
| 78 | 2400 | – | – | COC(=O)C1CCN(S(=O)(=O)c2ccc(OC/C(=C\F)CN)nc2)CC1 [Example 34] |
| 202 | 4640 | – | – | CCNC(=O)C1CCN(S(=O)(=O)c2ccc(OC/C(=C\F)CN)nc2)CC1 [Example 15] |
| 205 | 667 | – | – | NC/C(=C/F)COc1ccc(S(=O)(=O)N2CCC[C@H]2C(N)=O)cn1 [Example 13] |
| 40 | 781 | – | – | COC1CCN(S(=O)(=O)c2ccc(OC/C(=C\F)CN)nc2)CC1 [Example 40] |
| 72 | 1000 | – | – | CC(=O)N[C@@H]1CCCN(S(=O)(=O)c2ccc(OC/C(=C\F)CN)nc2)C1 [Example 24] |

— US12213970B2, “Pyridinyl sulfonamide derivatives, pharmaceutical compositions and uses thereof” (Boehringer Ingelheim International GmbH, priority 2018, dated 2025)
